In paper PMC9718554, “Discovery of a fragment hit compound targeting D-Ala:D-Ala ligase of bacterial peptidoglycan biosynthesis” (Journal of Enzyme Inhibition and Medicinal Chemistry, 2022):
Where two headings read alike, the source gives them in different places.

Target: T1, E. coli DdlB enzyme (D-alanine:D-alanine ligase) (Escherichia coli, UniProt P07862)
T1 construct: made in house; host or cells: E. coli
Assay: biochemical
Conditions: read-out: DdlB RA; for remaining activity at 2100 µM: tested concentration 2.1 mM; for remaining activity at 2300 µM: tested concentration 2.3 mM; for remaining activity at 2900 µM: tested concentration 2.9 mM; for remaining activity at 2200 µM: tested concentration 2.2 mM; for remaining activity at 1800 µM: tested concentration 1.8 mM; for remaining activity at 2400 µM: tested concentration 2.4 mM; for remaining activity at 1900 µM: tested concentration 1.9 mM; for remaining activity at 1700 µM: tested concentration 1.7 mM

Cc1noc(C)c1S(=O)(=O)N1CC(n2ccnc2)C1 [Compound S695-2555]
remaining activity at 2100 µM (residual activity): 97%

CC(C)C(=O)N1CC(n2cc(C(=O)N(C)C)nn2)C1 [Compound S724-0111]
remaining activity at 2300 µM (residual activity): 97%

COCc1cn(C2CNC2)nn1 [Compound S727-0003]
remaining activity at 2900 µM (residual activity of DdlB, fragment library screening): 7.54%

Cc1cnc(C)n1CCNC(=O)C1CC=CC1 [Compound S751-1890]
remaining activity at 2600 µM (tested concentration 2.6 mM): 98%

O=C(c1ccoc1)N1C[C@@H](CO)[C@H](c2ccncc2)C1 [Compound S824-2534]
remaining activity at 2200 µM (residual activity): 95%

CC(=O)NCC1CNCC12CCCCC2 (stereo not drawn) [Compound S855-0002]
remaining activity at 2200 µM: 85%

O=C(c1n[nH]c2ccccc12)N1C[C@H]2CCC[C@@H](O)[C@H]2C1 [Compound S890-0272]
remaining activity at 1800 µM (residual activity): 95%

O=C1CCC2(CCN(S(=O)(=O)c3ccccc3)C2)N1 (stereo not drawn) [Compound S914-0001]
remaining activity at 2100 µM (residual activity): 101%

O=S(=O)(c1cccnc1)N1CCC2(CCC2O)CC1 (stereo not drawn) [Compound S971-1046]
remaining activity at 1800 µM (residual activity): 89%

CC1(O)CCC12CCN(C(=O)CC1CC1)CC2 (stereo not drawn) [Compound S971-1224]
remaining activity at 2500 µM (tested concentration 2.5 mM): 75%

Cc1cccnc1C(=O)N1CCC2(CC1)CCC2(C)O (stereo not drawn) [Compound S971-1225]
remaining activity at 2200 µM (residual activity): 97%

C#CC(=O)NCc1ccc(F)cc1F [Compound T001-0851]
remaining activity at 2800 µM (tested concentration 2.8 mM): 93%

CC#CC(=O)NCc1cc(F)ccc1F [Compound T001-0919]
remaining activity at 2900 µM: 89%

CC#CC(=O)N(C)CCc1cn[nH]c1 [Compound T001-1282]
remaining activity at 2900 µM: 86%

C#CC(=O)NC(C)c1c(C)nn(C)c1C (stereo not drawn) [Compound T001-1381]
remaining activity at 2400 µM: 87%

C#CC(=O)NC(C)c1ccc(C)cc1 (stereo not drawn) [Compound T001-1588]
remaining activity at 3200 µM (residual activity of DdlB, fragment library screening, tested concentration 3.2 mM): 93%

O=C1CS(=O)(=O)C2(CCNCC2)N1c1ccccc1 [Compound T140-0972]
remaining activity at 1900 µM (residual activity): 93%

CCS(=O)(=O)N1CCc2[nH]c(-c3ccccc3)nc2C1 [Compound T147-0013]
remaining activity at 2100 µM (residual activity): 81%

CCCn1c(C)cnc1C1CCNC1 (stereo not drawn) [Compound T158-0004]
remaining activity at 2300 µM: 86%

CCn1cnnc1CC1CCCN(C(=O)c2ccco2)C1 (stereo not drawn) [Compound T501-0329]
remaining activity at 2100 µM (residual activity): 69%

CCCNC(=O)N1CCC(F)(C(=O)NC2CC2)CC1 [Compound T502-0828]
remaining activity at 1800 µM (residual activity): 97%

O=C(C1CCC1)N1CCC(F)(C(=O)N2CCCC2)CC1 [Compound T502-1244]
remaining activity at 1800 µM (residual activity): 97%

CCNC(=O)N1CCC(F)(C(=O)N2CCCC2)CC1 [Compound T502-1430]
remaining activity at 2200 µM (residual activity): 89%

CCS(=O)(=O)N1CCC(F)(C(=O)N2CCCC2)CC1 [Compound T502-1464]
remaining activity at 2100 µM (residual activity): 83%

CCNC(=O)N1CCCN(C)c2ccccc21 [Compound T599-3176]
remaining activity at 2400 µM: 96%

Cc1ccccc1C(=O)N1CCCN(C)c2ccccc21 [Compound T599-3543]
remaining activity at 1800 µM (residual activity): 72%

CCc1nnc(C2CCCN(C(=O)C3CCCCC3)C2)[nH]1 (stereo not drawn) [Compound T629-1509]
remaining activity at 1700 µM (residual activity): 71%

Cc1nnc(C2CCN(C(=O)c3ccco3)CC2)[nH]1 [Compound T630-1922]
remaining activity at 1900 µM (residual activity): 58%

O=C(c1ccccc1)N1CCC(c2nnc(C3CC3)[nH]2)CC1 [Compound T630-2594]
remaining activity at 1700 µM: 91%

Cc1c(C(=O)O)nnn1-c1ccc2c(c1)CCC2 [Compound T640-0079]
remaining activity at 2100 µM: 92%

Cc1ccc(F)c(-n2cc(C(=O)O)nn2)c1 [Compound T640-0432]
remaining activity at 2300 µM: 100%

CC(O)C1CCN(Cc2ccncc2)CC1 (stereo not drawn) [Compound T786-0016]
remaining activity at 2300 µM: 65%

CC(O)C1CCN(Cc2ccc(Br)o2)CC1 (stereo not drawn) [Compound T786-0030]
remaining activity at 2100 µM (residual activity): 94%

CC1CCN(C(=O)C2N(C(C)C)C(=O)C23CCCC3)CC1 (stereo not drawn) [Compound T964-0245]
remaining activity at 2100 µM (residual activity): 95%

CC(C)N1C(=O)C2(CCCC2)C1C(=O)O (stereo not drawn) [Compound T964-0325]
remaining activity at 2400 µM: 92%

O=C1C(O)C2(CCCCC2)N1C1CCNCC1 (stereo not drawn) [Compound T965-0058]
remaining activity at 2100 µM (residual activity): 90%

CNCCN1C(=O)C(C)SC1c1ccccc1C (stereo not drawn) [Compound V007-8918]
remaining activity at 1900 µM: 72%

Cc1cccc(C2SC(C)C(=O)N2CC(=O)N(C)C)c1 (stereo not drawn) [Compound V017-7801]
remaining activity at 1700 µM: 98%

CNC(=O)CN1C(=O)CSC1c1ccc(F)cc1 (stereo not drawn) [Compound V022-4411]
remaining activity at 1900 µM: 92%
